Measured values: ChEMBL document CHEMBL1130742, “Inhibition of thermolysin with nitrone-bearing substrate analogs: a new type of thermolysin inhibitors” (Bioorg Med Chem Lett, 1998)

Target: T1, Thermolysin (Bacillus thermoproteolyticus, UniProt P00800)
T1 sequence (P00800 whole entry): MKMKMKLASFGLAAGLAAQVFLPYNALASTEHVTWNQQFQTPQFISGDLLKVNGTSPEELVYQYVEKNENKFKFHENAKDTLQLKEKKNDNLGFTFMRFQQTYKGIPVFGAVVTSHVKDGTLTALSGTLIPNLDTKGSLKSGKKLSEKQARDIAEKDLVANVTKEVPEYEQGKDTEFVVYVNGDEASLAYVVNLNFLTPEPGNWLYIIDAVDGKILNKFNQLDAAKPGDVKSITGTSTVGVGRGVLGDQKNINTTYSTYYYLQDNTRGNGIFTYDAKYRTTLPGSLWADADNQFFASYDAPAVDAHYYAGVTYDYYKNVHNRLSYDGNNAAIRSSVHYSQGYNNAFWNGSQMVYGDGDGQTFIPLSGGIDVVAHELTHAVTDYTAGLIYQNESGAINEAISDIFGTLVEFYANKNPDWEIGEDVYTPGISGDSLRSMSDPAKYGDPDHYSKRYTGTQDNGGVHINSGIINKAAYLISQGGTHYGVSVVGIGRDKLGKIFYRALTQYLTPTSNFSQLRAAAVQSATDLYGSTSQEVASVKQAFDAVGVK
Assay: Inhibitory activity against thermolysin using 2-furylacryloyl-Gly-Leu-NH2 as substrate at pH 7.2

SMILES | Ki
COC(=O)C(Cc1ccccc1)/[N+]([O-])=C/c1ccccc1 (stereo not drawn) | 1910 µM
NC(=O)C(Cc1ccccc1)/[N+]([O-])=C/c1ccccc1 (stereo not drawn) | 774 µM
COC(=O)C(Cc1ccccc1)C/[N+]([O-])=C/c1ccccc1 (stereo not drawn) | 244 µM
O=CN(O)CC(Cc1ccccc1)C(=O)NCC(=O)O (stereo not drawn) | 34 µM
COC(=O)C(/C=[N+](\[O-])Cc1ccccc1)Cc1ccccc1 (stereo not drawn) | 82 µM

Continued by falling Ki, values first:

Ki | SMILES
340 µM | O=C(O)CNC(=O)C(CC(=O)O)Cc1ccccc1 (stereo not drawn)
54 µM | O=C(O)CNC(=O)C(/C=[N+](\[O-])Cc1ccccc1)Cc1ccccc1 (stereo not drawn)
40 µM | NC(=O)C(/C=[N+](\[O-])Cc1ccccc1)Cc1ccccc1 (stereo not drawn)
